Reference: patent US20250188162A1, “INHIBITOR OF INTERLEUKIN-1 RECEPTOR TYPE 1 FOR USE IN THE TREATMENT OF CANCER” (Buzzard Pharmaceuticals AB, priority 2022, published 2025)

How the values were obtained:
NF-κB = NF-κB reporter bioluminescence of NGL RAW264.7 macrophages pre-treated with Cu-CPT22 and exposed to VCAN; format: cell-based, murine; conditions: 1 nM recombinant VCAN, bioluminescence at 24 hours
RAW264.7 macrophages = assay: MTT reduction of RAW264.7 macrophages treated with Cu-CPT22; format: cell-based, murine; conditions: MTT reduction at 72 hours post-LPS/VCAN
Kras-mutant cancer cells [1] = assay: malignant pleural effusion model of κB.luc mice with pleural LLC cells treated with Cu-CPT22; format: in vivo; conditions: daily intraperitoneal 20 mg/kg, 14 days post-pleural LLC cells
[2] = 133 mg/h for 72 hours; cited from earlier work
KrasMUT tumors = assay: subcutaneous tumor growth in mice with established tumors treated with Isunakinra; format: in vivo; conditions: daily intraperitoneal 20 or 50 mg/Kg from 10-17 days post tumor cells; FULA1, LLC, MC38 (Kras-mutant) vs B16F10, PANO2 (WT)
Method: (§1) FIG. 6. Pharmacologic abolition of non-oncogene addiction of Kras-mutant tumors to IL-1β. […] (A) FVB (n=10) and C57BL/6 (n=45) mice received subcutaneous injections of 5×10^6 FULA1 (FVB mice) or LLC, MC38, B16F10, or PANO2 (C57BL/6 mice) cells that carry G12C, G13R, Q61R, or wild-type (WT) Kras alleles. Mice were allowed 10-17 days for tumor take, and were treated with daily intraperitoneal phosphate buffered saline (PBS) or 20 mg/Kg (LLC cells) or 50 mg/Kg (all other cells) Isunakinra until control tumor volume reached 1 cm3 (PANO2 cells) or 2 cm3 (all other cell lines). Shown are therapy (Tx) start, mouse numbers (n), tumor volume as mean (circles) and SD (bars), two-way ANOVA probability (P) for treatment effects, and average Isunakinra effect at the last time-points (%). ** and ***: P<0.01 and P<0.001, respectively, Bonferroni post-tests. (B-D) C57BL/6 mice (n=48) received intrapleural 2×10^5 LLC cells stably expressing a κB.LUC reporter (NGL), were allowed five days for tumor take, and received daily intraperitoneal PBS or 20 mg/Kg Isunakinra. Mice were sacrificed when morbid (n=17/treatment) or at day 14 post-LLC cells (n=7/treatment), after 1 mg intravenous D-luciferin and bioluminescence imaging. […]

Kras-mutant cancer cells [3] = assay: intrapleural LLC κB.LUC reporter malignant pleural effusion model treated with Isunakinra; format: in vivo, mice; conditions: daily intraperitoneal 20 mg/Kg from day 5 post-intrapleural LLC cells
Method: as §1

## CCCCCCOC(=O)c1cc(O)c(=O)c2c(O)c(O)c(OC)cc2c1 [Cu-CPT22, 3,4,6-Trihydroxy-2-methoxy-5-oxo-5H-benzocycloheptene-8-carboxylic acid hexyl ester]
NF-κB
  concentration range inhibiting VCAN induced NF-κB activation: low micromolar range
RAW264.7 macrophages
  concentration range inhibiting cellular survival: low micromolar range
Kras-mutant cancer cells [1]
  VCAN-induced myeloid NF-κB activation and MPE: blocks versican (VCAN)-induced myeloid NF-κB activation and MPE of Kras-mutant cancer cells in vivo
  tumor growth in vivo: blocked tumor growth in vivo at clinically relevant concentrations

## IL-1RA: IL-1 receptor antagonist protein, natural antagonist of IL-1α and IL-1β
[2]
  clinical or laboratory values: no change in clinical or laboratory values

B1: Isunakinra: protein chimera of IL-1β and IL-1 receptor antagonists comprising P05 (SEQ ID NO: 5); binds IL1R1 (protein)
chain: APVRSLNCRIWDVNQKTFYLRNNQLVAGYLQGPNVNLEEKFSMSFVQGEESNDKIPVALGLKEKNLYLSCVLKDDKPTLQLESVDPKNYPKKKMEKRFVFNKIEINNKLEFESAQFPNWFLCTAMEADQPVSLTNMPDEGVMVTKFYMQFVSS
modifications: P05
KrasMUT tumors
  s.c. tumor growth (tumor volume): specifically inhibited s.c. growth of KrasMUT tumors
Kras-mutant cancer cells [3]
  NF-κB activation in KrasMUT cancer cells in vivo (chest bioluminescence): limited nuclear factor (NF)-κB activation in KrasMUT cancer cells in vivo
  malignant pleural effusions (MPE): limits nuclear factor (NF)-κB activation and malignant pleural effusions (MPE) from Kras-mutant cancer cells
